Source: PubChem BioAssay (NCI)
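Results reflect a 48-hour exposure of cells in 96-well plates to compound at five concentrations. Here, GI50 denotes the concentration required for 50% inhibition of growth. TGI: concentration producing complete growth inhibition.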

Experiments:
Test in all cases: inhibition of tumour cell growth, NCI panel, 48 h
[1] = tested on: HCT-15 colon
[2] = tested on: KM12 colon
[3] = tested on: UACC-257 melanoma
[4] = tested on: IGROV1 ovarian
[5] = tested on: M14 melanoma
[6] = tested on: MDA-MB-231 breast
[7] = tested on: NCI-H226 lung
[8] = tested on: SR leukemia
[9] = tested on: HCT-116 colon
[10] = tested on: OVCAR-5 ovarian
[11] = tested on: HCC-2998 colon
[12] = tested on: K-562 leukemia
[13] = tested on: HT29 colon
[14] = tested on: SN12C renal
[15] = tested on: MCF7 breast
[16] = tested on: SW-620 colon
[17] = tested on: SK-MEL-28 melanoma
[18] = tested on: UACC-62 melanoma
[19] = tested on: SF-268 CNS
[20] = tested on: HL-60(TB) leukemia
[21] = tested on: LOX IMVI melanoma
[22] = tested on: NCI-H23 lung
[23] = tested on: SNB-75 CNS
[24] = tested on: HOP-62 NSCLC
[25] = tested on: OVCAR-8 ovarian
[26] = tested on: HS 578T breast
[27] = tested on: SK-MEL-2 melanoma
[28] = tested on: EKVX NSCLC
[29] = tested on: SNB-19 CNS
[30] = tested on: NCI-H522 lung
[31] = tested on: BT-549 breast

## COc1ccc(CN2c3ccccc3Sc3ccccc32)c(F)c1
[1]
  GI50: 0.0379 µM
  TGI: > 100 µM
[2]
  GI50: 0.0432 µM
  TGI: > 100 µM
[3]
  GI50: > 100 µM
  TGI: > 100 µM
[4]
  GI50: 4.56 µM
  TGI: > 100 µM
[5]
  GI50: 0.0381 µM
  TGI: > 100 µM
[6]
  GI50: 5.09 µM
  TGI: > 100 µM
[7]
  GI50: 13 µM
  TGI: > 100 µM
[8]
  GI50: 0.0596 µM
  TGI: > 100 µM
[9]
  GI50: 0.0398 µM
  TGI: > 100 µM
[10]
  GI50: 4.39 µM
  TGI: > 100 µM
[11]
  GI50: 5.06 µM
  TGI: > 100 µM
[12]
  GI50: 0.038 µM
  TGI: > 100 µM
[13]
  GI50: 0.035 µM
  TGI: > 100 µM
[14]
  GI50: 10.6 µM
  TGI: > 100 µM
[15]
  GI50: 0.0327 µM
  TGI: > 100 µM
[16]
  GI50: 0.0363 µM
  TGI: > 100 µM
[17]
  GI50: 5.05 µM
  TGI: > 100 µM

## COc1ccc2[nH]c(O)c(N=NC(=O)c3oc4ccccc4c3C)c2c1
[18]
  GI50: 5.19 µM
  TGI: > 100 µM
[19]
  GI50: 5.18 µM
  TGI: 56.8 µM
[6]
  GI50: 2.07 µM
  TGI: 5.1 µM
[20]
  GI50: > 100 µM
  TGI: > 100 µM
[21]
  GI50: 3.16 µM
  TGI: > 100 µM
[22]
  GI50: 1.86 µM
  TGI: 4.43 µM
[23]
  GI50: 1.25 µM
  TGI: 2.75 µM
[24]
  GI50: 1.92 µM
  TGI: 4.02 µM
[25]
  GI50: 3.22 µM
  TGI: > 100 µM
[26]
  GI50: 2.41 µM
  TGI: 7.72 µM
[27]
  GI50: 2.56 µM
  TGI: 6.62 µM
[14]
  GI50: 2.82 µM
  TGI: > 100 µM
[28]
  GI50: 2.94 µM
  TGI: > 100 µM
[29]
  GI50: 3.45 µM
  TGI: 16.2 µM
[30]
  GI50: 6.07 µM
  TGI: > 100 µM
[31]
  GI50: 5.38 µM
  TGI: 33.7 µM
